Consider 2 compounds from patent publication US10149838B2, “Small molecule securinine and norsecurinine analogs and their use in inhibiting myeloperoxidase” (MiRx Pharmaceuticals, LLC, priority 2013, dated 2018).

As usually defined, the half-life is the time needed for the level to fall by half in the phase considered.

The target in data set [1] is T1, MPO (Homo sapiens, UniProt P05164).
T1 sequence (P05164 49-745): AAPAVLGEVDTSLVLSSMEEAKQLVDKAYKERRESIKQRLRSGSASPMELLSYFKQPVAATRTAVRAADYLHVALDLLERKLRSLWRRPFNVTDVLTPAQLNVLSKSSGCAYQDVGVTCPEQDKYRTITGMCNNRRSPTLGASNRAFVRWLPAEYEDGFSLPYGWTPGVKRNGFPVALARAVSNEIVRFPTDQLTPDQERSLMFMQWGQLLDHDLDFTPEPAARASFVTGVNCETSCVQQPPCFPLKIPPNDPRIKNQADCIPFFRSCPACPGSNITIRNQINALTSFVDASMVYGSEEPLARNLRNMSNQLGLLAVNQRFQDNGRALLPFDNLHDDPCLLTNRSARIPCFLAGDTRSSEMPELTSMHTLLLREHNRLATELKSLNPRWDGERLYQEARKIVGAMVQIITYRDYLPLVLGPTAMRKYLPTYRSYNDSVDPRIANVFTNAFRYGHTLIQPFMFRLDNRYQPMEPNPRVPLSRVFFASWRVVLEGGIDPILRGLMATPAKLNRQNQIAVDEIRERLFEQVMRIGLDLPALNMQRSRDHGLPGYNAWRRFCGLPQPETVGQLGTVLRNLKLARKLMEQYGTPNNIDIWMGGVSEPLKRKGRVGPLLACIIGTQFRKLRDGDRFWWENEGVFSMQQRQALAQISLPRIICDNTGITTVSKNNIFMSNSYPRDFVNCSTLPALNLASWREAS
The experiment in a line: MALDI-TOF analysis of heme and heme/compound conjugate in presence of H2O2. Format: binding. On the set-up: purchased Cayman Chemical 700170. Here is the method:
(§1) Only MPO (red) and H2O2 promoted a shift in the Soret peak, formation of a new band at 630 nm (blue).
To determine the binding motif/active site of MPO and the compound of interest, a computational docking analysis using a 2.5 A crystal structure (PDB id 3ZSO) was performed. The heme ‘m’ in myeloperoxidase contains two ester bonds at the heme 1 and 5-methyls. In addition, a unique sulfonium ion linkage was observed. […] An inhibitory action of the myeloperoxidase is predicted when such covalent links are formed. Especially docking position of 184B unique and have visible effect on the Hisitidine 336 coordinated iron (FIG. 6E). These docking results explain the observed effects of 184B on the soret peak (˜433). Further MALDI-TOF analysis of heme (un conjugated) and heme/184B conjugated (in presence of H2O2) complexes are liberated from protein and analyzed ions with an ˜m/z>1040, which would be the mass of conjugated heme and 184B compare to unconjugated control only heme (m/z˜694) (FIG. 6F).

Data set [2] has as its target T1, MPO. The experiment in a line: Chlorination assay with purified MPO (HOCl formation, APF fluorescence). On the set-up: purchased Cayman Chemical 700170. In kind it is biochemical. Here is the method:
(§2) All Results are representative of duplicate experiments
MPO's catalyzed enzymatic reaction consists of multiple stages (FIG. 3). Chlorination occurs when Complex-I produces hypochlorous acid (HOCl) in the presence of a chloride ion. […] Analogue MA20:
(§3) To determine the mechanism of this inhibition, the MPO enzyme was incubated with MA20 in the presence or absence of H2O2 for a set time and determined the reduction in chlorination activity of the enzyme. Residual activity was measured by diluting the reaction mixture by 150 fold. Incubation with either MA20 or H2O2 had minimal MPO inhibitory activity (approximately a 25-30% reduction in chlorination activity, FIG. 7E).

Data set [3] has as its target T1, MPO. The experiment in a line: Residual chlorination activity of MPO after incubation with or without H2O2, 150 fold dilution. The following applies: FIG. 7E. Format: biochemical. On the set-up: purchased Cayman Chemical 700170. Here is the method:
as §2, §3

Another data set concerns human neutrophils. The experiment in a line: HOCl production by PMA-stimulated human neutrophils. The note with it: 0.5 μM MA20, PMA 110 ng/ml 30 min. In kind it is cell-based. The method, then: as §2
The reaction was stopped by 251 μg/ml of catalase and 0.5 μM of MA20, and chlorination activity was measured. […] This effect is strikingly similar to MA20's inhibitory effect on purified MPO (FIG. 7C). […] As such, they prevent the production of HOCl without concomitant release of free radicals.

Data set [4] has as its target T1, MPO. The experiment in a line: Oxidation of ascorbate by MPO, H2O2 and chloride. The note with it: 1.0 μM, chloride. On the set-up: purchased Cayman Chemical 700170. Format: biochemical.
From the text: as §2
(§4) To determine whether these analogues are selective for MPO, rather than being a general peroxidase inhibitor, thyroid peroxidase and lactoperoxidase were selected for oxidase evaluation. The effect of MA20 on the halogenation activities of MPO and thyroid peroxidase were compared by following the oxidation of ascorbate in the presence of chloride or iodide.

In data set [5] the target is T1, MPO. The experiment in a line: UV/visible heme absorption spectra of MPO with compound/H2O2. Format: binding. On the set-up: purchased Cayman Chemical 700170. The method, then:
as §1
It was next set about to investigate the molecular target of the analogs (FIG. 6A). Cultured HL60 cells were treated with either Biotin/Biotin-INVMG1 (securinine) (10 μM) for 2 hr and pull-down experiments using streptavidin magnetic beads were used to pulldown bound molecules, followed by SDS-PAGE analysis (FIG. 6B). […] This 80 kDa protein band was excised, digested with trypsin, and the tryptic digests then analyzed using Mass Spectroscopy. […] The proteins bound to streptavidin beads were next separated using SDS-PAGE and incubated then with anti-human MPO antibody. […] To further confirm the binding of INVMG1 to MPO, the MPO enzyme was incubated with and without INVMG184B/H2O2, and analyzed absorption maxima using UV/visible.

A further data set relates to Skin fibroblast (BJ1). In kind it is cell-based. The source says:
(§5) The securinine analog MPO inhibitors have favorable in vitro and in vivo toxicity profiles.

In the next data set the test system is HEK293. In kind it is cell-based.
From the text: as §5

In data set [6] the test system is mouse embryonic fibroblast (MEF). Format: cell-based.
From the text: as §5

A short description of another data set: in vitro. The following applies: human, microsomes. In kind it is in vitro ADME.
From the text: as §5

The next data set deals with T2, thyroid peroxidase (Homo sapiens, UniProt P07202).
T2 sequence (P07202 19-933): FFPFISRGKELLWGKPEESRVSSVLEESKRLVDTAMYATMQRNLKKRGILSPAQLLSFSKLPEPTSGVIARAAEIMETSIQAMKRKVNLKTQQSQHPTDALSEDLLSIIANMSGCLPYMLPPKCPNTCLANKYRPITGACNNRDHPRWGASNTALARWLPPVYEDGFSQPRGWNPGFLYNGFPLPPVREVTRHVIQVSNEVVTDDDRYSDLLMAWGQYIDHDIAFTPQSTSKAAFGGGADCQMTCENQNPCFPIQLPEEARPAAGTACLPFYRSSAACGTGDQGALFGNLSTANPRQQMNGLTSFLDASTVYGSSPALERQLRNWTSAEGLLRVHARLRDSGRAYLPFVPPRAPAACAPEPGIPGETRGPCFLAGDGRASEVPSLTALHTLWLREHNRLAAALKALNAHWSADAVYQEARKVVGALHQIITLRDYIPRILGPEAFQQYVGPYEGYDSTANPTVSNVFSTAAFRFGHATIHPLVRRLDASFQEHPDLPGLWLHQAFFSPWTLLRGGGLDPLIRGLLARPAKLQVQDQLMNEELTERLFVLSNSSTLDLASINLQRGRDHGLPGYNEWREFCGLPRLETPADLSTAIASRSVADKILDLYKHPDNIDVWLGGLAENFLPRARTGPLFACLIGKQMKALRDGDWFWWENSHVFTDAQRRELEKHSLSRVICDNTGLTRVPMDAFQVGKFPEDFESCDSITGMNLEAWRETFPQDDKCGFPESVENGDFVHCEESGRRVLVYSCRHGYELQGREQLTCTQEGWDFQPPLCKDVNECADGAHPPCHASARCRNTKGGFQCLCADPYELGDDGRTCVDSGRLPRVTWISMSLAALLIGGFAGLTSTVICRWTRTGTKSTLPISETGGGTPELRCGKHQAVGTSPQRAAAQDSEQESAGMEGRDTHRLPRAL
The experiment in a line: Oxidation of ascorbate by thyroid peroxidase and iodide (iodination activity). The note with it: 10 μM, iodide. Format: biochemical.
From the text: as §2, §4

SMILES strings stand for the structures.

In the case of `O=C1C=C2CC(S(=O)(=O)c3ccccc3)[C@@H]3C[C@@]2(O1)[C@H]1CCCCN31` (some centres unmarked) [INVS-MG-184B], at MPO [1], the “nature of interaction with MPO (heme conjugate)” value was “irreversible”.

Regarding `O=C1C=C2C(S(=O)(=O)c3ccccc3)C[C@@H]3C[C@@]2(O1)C1CCCCN13` (some centres unmarked) [MA20], the “MPO inhibition activity assessed by chlorination activity” value at MPO [2] (FIG. 7B-C) is “highest MPO inhibition activity”. For the same compound, on MPO [2] (FIG. 7D), the “inhibition potency (chlorination) versus chloride ion concentration” value is on record as “decreased with increasing concentrations of the chloride ion”. On MPO [2] (preliminary data), the “mechanism of MPO inhibition” value was “suicidal substrate”. Also, on MPO [3] (MA20 and H2O2), the “MPO activity after addition of compound and H2O2” value is “completely inhibited”. Besides, the “reduction in chlorination activity” value on MPO [3] (incubation with MA20 alone, without H2O2) is reported as 25-30%. Besides, the “PMA-induced HOCl production by neutrophils” value in the data set on human neutrophils is “significantly inhibited”. Besides, the “oxidation of ascorbate by MPO” value at MPO [4] is reported as “completely blocked”. The “binding with the heme prosthetic group (Soret ~433 nm, peak ~630 nm)” value at MPO [5] is reported as “direct binding”. Moreover, the “toxicity (cell survival)” value (in the data set with Skin fibroblast (BJ1); with HEK293; in data set [6]) was “significantly lower level of toxicity” in each case. The half-life in “in vitro” is roughly 1.33 h. The “effect on the iodination activity of thyroid peroxidase” value at thyroid peroxidase was “negligible”.
